{"source": "patent US20160235660A1", "about": "“COSMETIC COMPOSITION AND USE THEREOF” (EMS S.A., priority 2015, published 2016)", "origin": "cited, not measured here", "system": "facial melasma", "details": "hydroquinone 4% vs 0.75% kojic acid cream", "data": [{"smiles": "Oc1ccc(O)cc1", "note": "[hydroquinone, 1,4-dihydroxybenzene]", "values": [{"measurement": "action in the treatment of melasma compared with kojic acid", "result": "superiority"}]}]}
